# Measured values: US9924721B2 (priority 2013, dated 2018)
# Marks after values point to notes of the source that are not given here.
# Experiments:
# [1] = pH 2.7
# Phytophthora infestans = experiment: microbe, parasite or virus in culture; type: cell-based; conditions: 8 days incubation
# Pythium ultimum = Pythium ultimum in vitro cell test; type: cell-based; conditions: 4 days incubation
# Description: Pythium ultimum In Vitro Cell Test
# • Solvent: DMSO • Culture medium: 14.6 g anhydrous D-glucose (VWR), 7.1 g Mycological Peptone (Oxoid), 1.4 g granulated Yeast Extract (Merck), QSP liter • Inoculum: mycelial suspension
# Fungicides were solubilized in DMSO and the solution used to prepare the required range of concentrations. The final concentration of DMSO used in the assay was ≤1%.
# Inoculum was prepared from a pre-culture of P. ultimum grown in liquid medium by homogenization using a blender. The concentration of ground mycelium in the inoculum was estimated and adjusted to the desired optical density (OD).
# Fungicides were evaluated for their ability to inhibit mycelium growth in liquid culture assay. The compounds were added in the desired concentrations to culture medium containing the mycelial suspension. After 4 days of incubation, the fungicidal efficacy of compounds was determined by spectrometric measurement of mycelium growth. Inhibition of fungal growth was determined by comparing the absorbance values in wells containing the fungicides with the absorbance in control wells without fungicides.
# [2] = 0.25 μg/mL of active ingredient
SMILES,Log P [1],also measured
CCCCCC(CC)OC(=O)CC(=O)N1CCC(c2nc(C3=NOC(c4c(F)cccc4OS(C)(=O)=O)C3)cs2)CC1 (stereo not shown) [Example I-48],4.03^[a],–
CC(C)(C)OC(=O)CC(=O)N1CCC(c2nc(C3=NOC(c4ccccc4OS(C)(=O)=O)C3)cs2)CC1 (stereo not shown) [Example I-81],2.80^[a],–
C#CCOc1cccc(F)c1C1CC(c2csc(C3CCN(C(=O)CC(=O)OC(CC)CCCCC)CC3)n2)=NO1 (stereo not shown) [Example I-40],4.42^[a],Eff. % (inhibition of fungal growth) (Phytophthora infestans; 20 μg/mL of active ingredient): 100%; Eff. % (inhibition of fungal growth) (Pythium ultimum; 20 μg/mL of active ingredient): 93%
CC(C)OC(=O)C(C(=O)N1CCC(c2nc(C3=NOC(c4c(F)cccc4OS(C)(=O)=O)C3)cs2)CC1)n1nc(C(F)F)cc1C(F)F (stereo not shown) [Example I-17],3.49^[a],Eff. % (inhibition of fungal growth) (Phytophthora infestans; [2]): 100%; Eff. % (inhibition of fungal growth) (Pythium ultimum; of active ingredient): 99%
CCOC(=O)C(Br)C(=O)N1CCC(c2nc(C3=NOC(c4ccccc4OS(C)(=O)=O)C3)cs2)CC1 (stereo not shown) [Example I-33],2.72^[a],Eff. % (inhibition of fungal growth) (Phytophthora infestans; 20 μg/mL of active ingredient): 100%; Eff. % (inhibition of fungal growth) (Pythium ultimum; 20 μg/mL of active ingredient): 99%
CC(C)OC(=O)CC(=O)N1CCC(c2nc(C3=NOC(c4ccccc4C=O)C3)cs2)CC1 (stereo not shown) [Example I-56],2.57^[a],Eff. % (inhibition of fungal growth) (Phytophthora infestans; 20 μg/mL of active ingredient): 100%; Eff. % (inhibition of fungal growth) (Pythium ultimum; 20 μg/mL of active ingredient): 84%
CCOC(=O)C(Br)C(=O)N1CCC(c2nc(C3=NOC(c4ccccc4C=O)C3)cs2)CC1 (stereo not shown) [Example I-25],2.82^[a],Eff. % (inhibition of fungal growth) (Phytophthora infestans; 20 μg/mL of active ingredient): 100%
CCCCCC(CC)OC(=O)C(C(=O)N1CCC(c2nc(C3=NOC(c4ccccc4C=O)C3)cs2)CC1)n1nc(C(F)F)cc1C(F)F (stereo not shown) [Example I-21],5.20^[a],–
CS(=O)(=O)Oc1cccc(Cl)c1C1CC(c2csc(C3CCN(C(=O)CC(=O)OCc4ccccc4)CC3)n2)=NO1 (stereo not shown) [Example I-76],3.12^[a],–
CCOC(=O)C(C(=O)N1CCC(c2nc(C3=NOC(c4ccccc4OS(C)(=O)=O)C3)cs2)CC1)n1nc(C(F)(F)F)cc1C (stereo not shown) [Example I-19],3.42^[a],Eff. % (inhibition of fungal growth) (Phytophthora infestans; 20 μg/mL of active ingredient): 100%
CC(C)(C)OC(=O)C(C(=O)N1CCC(c2nc(C3=NOC(c4c(Cl)cccc4OS(C)(=O)=O)C3)cs2)CC1)n1nc(C(F)F)cc1C(F)F (stereo not shown) [Example I-64],4.00^[a],Eff. % (inhibition of fungal growth) (Phytophthora infestans; [2]): 100%
CS(=O)(=O)Oc1cccc(Cl)c1C1CC(c2csc(C3CCN(C(=O)C(Br)C(=O)OCc4ccccc4)CC3)n2)=NO1 (stereo not shown) [Example I-67],3.54^[a],–
C#CCOc1ccccc1C1CC(c2csc(C3CCN(C(=O)C(C(=O)OCc4ccccc4)n4nc(C(F)F)cc4C(F)F)CC3)n2)=NO1 (stereo not shown) [Example I-62],4.16^[a],Eff. % (inhibition of fungal growth) (Phytophthora infestans; [2]): 100%
CC(C)(C)OC(=O)C(Br)C(=O)N1CCC(c2nc(C3=NOC(c4ccccc4OS(C)(=O)=O)C3)cs2)CC1 (stereo not shown) [Example I-74],3.24^[a],–
C#CCOc1cccc(Cl)c1C1CC(c2csc(C3CCN(C(=O)C(Br)C(=O)OCC)CC3)n2)=NO1 (stereo not shown) [Example I-31],3.20^[a],–
CC(C)(C)OC(=O)C(Br)C(=O)N1CCC(c2nc(C3=NOC(c4c(Cl)cccc4OS(C)(=O)=O)C3)cs2)CC1 (stereo not shown) [Example I-72],3.50^[a],–
C#CCOc1ccccc1C1CC(c2csc(C3CCN(C(=O)C(Br)C(=O)OC(C)(C)C)CC3)n2)=NO1 (stereo not shown) [Example I-73],3.68^[a],–
C#CCOc1cccc(Cl)c1C1CC(c2csc(C3CCN(C(=O)CC(=O)OC(C)(C)C)CC3)n2)=NO1 (stereo not shown) [Example I-80],3.36^[a],Eff. % (inhibition of fungal growth) (Phytophthora infestans; [2]): 100%
CC(C)(C)OC(=O)CC(=O)N1CCC(c2nc(C3=NOC(c4c(Cl)cccc4OS(C)(=O)=O)C3)cs2)CC1 (stereo not shown) [Example I-79],3.04^[a],–
C#CCOc1cccc(Cl)c1C1CC(c2csc(C3CCN(C(=O)CC(=O)OCc4ccccc4)CC3)n2)=NO1 (stereo not shown) [Example I-78],3.45^[a],Eff. % (inhibition of fungal growth) (Phytophthora infestans; [2]): 88%
C#CCOc1cccc(Cl)c1C1CC(c2csc(C3CCN(C(=O)C(Br)C(=O)OC(C)(C)C)CC3)n2)=NO1 (stereo not shown) [Example I-71],3.84^[a],Eff. % (inhibition of fungal growth) (Phytophthora infestans; [2]): 100%
C#CCOc1cccc(F)c1C1CC(c2csc(C3CCN(C(=O)C(Br)C(=O)OC(CC)CCCCC)CC3)n2)=NO1 (stereo not shown) [Example I-35],4.89^[a],–
COCCOC(=O)C(Br)C(=O)N1CCC(c2nc(C3=NOC(c4ccccc4OS(C)(=O)=O)C3)cs2)CC1 (stereo not shown) [Example I-36],2.53^[a],–
CCCCCC(CC)OC(=O)C(Br)C(=O)N1CCC(c2nc(C3=NOC(c4ccccc4C=O)C3)cs2)CC1 (stereo not shown) [Example I-28],4.83^[a],Eff. % (inhibition of fungal growth) (Phytophthora infestans; 20 μg/mL of active ingredient): 100%
CCCCCC(CC)OC(=O)C(C(=O)N1CCC(c2nc(C3=NOC(c4ccccc4OS(C)(=O)=O)C3)cs2)CC1)n1nc(C(F)F)cc1C(F)F (stereo not shown) [Example I-10],4.96^[a],Eff. % (inhibition of fungal growth) (Phytophthora infestans; 20 μg/mL of active ingredient): 97%
CCOC(=O)CC(=O)N1CCC(c2nc(C3=NOC(c4ccccc4C=O)C3)cs2)CC1 (stereo not shown) [Example I-53],2.34^[a],Eff. % (inhibition of fungal growth) (Phytophthora infestans; 20 μg/mL of active ingredient): 100%

SMILES,Log P [1],also measured
CCCCCC(CC)OC(=O)C(Br)C(=O)N1CCC(c2nc(C3=NOC(c4ccccc4OS(C)(=O)=O)C3)cs2)CC1 (stereo not shown) [Example I-39],4.55^[a],–
C#CCOc1cccc(F)c1C1CC(c2csc(C3CCN(C(=O)C(Br)C(=O)OCCOC)CC3)n2)=NO1 (stereo not shown) [Example I-24],2.85^[a],–
CC(C)OC(=O)C(Br)C(=O)N1CCC(c2nc(C3=NOC(c4ccccc4OS(C)(=O)=O)C3)cs2)CC1 (stereo not shown) [Example I-37],2.99^[a],–
C#CCOc1cccc(Cl)c1C1CC(c2csc(C3CCN(C(=O)C(C(=O)OCc4ccccc4)n4nc(C(F)F)cc4C(F)F)CC3)n2)=NO1 (stereo not shown) [Example I-59],4.28^[a],Eff. % (inhibition of fungal growth) (Phytophthora infestans; [2]): 100%
CC(C)OC(=O)CC(=O)N1CCC(c2nc(C3=NOC(c4ccccc4OS(C)(=O)=O)C3)cs2)CC1 (stereo not shown) [Example I-58],2.56^[a],Eff. % (inhibition of fungal growth) (Phytophthora infestans; 20 μg/mL of active ingredient): 100%
CC(C)(C)OC(=O)C(C(=O)N1CCC(c2nc(C3=NOC(c4ccccc4OS(C)(=O)=O)C3)cs2)CC1)n1nc(C(F)F)cc1C(F)F (stereo not shown) [Example I-66],3.74^[a],Eff. % (inhibition of fungal growth) (Phytophthora infestans; [2]): 100%
CC(C)OC(=O)C(Br)C(=O)N1CCC(c2nc(C3=NOC(c4c(F)cccc4OS(C)(=O)=O)C3)cs2)CC1 (stereo not shown) [Example I-23],2.97^[a],Eff. % (inhibition of fungal growth) (Phytophthora infestans; [2]): 100%
CC(C)OC(=O)C(C(=O)N1CCC(c2nc(C3=NOC(c4ccccc4C=O)C3)cs2)CC1)n1nc(C(F)F)cc1C(F)F (stereo not shown) [Example I-13],3.70^[a],Eff. % (inhibition of fungal growth) (Phytophthora infestans; [2]): 94%
C#CCOc1ccccc1C1CC(c2csc(C3CCN(C(=O)C(Br)C(=O)OCc4ccccc4)CC3)n2)=NO1 (stereo not shown) [Example I-70],3.72^[a],–
CCOC(=O)C(C(=O)N1CCC(c2nc(C3=NOC(c4ccccc4C=O)C3)cs2)CC1)n1nc(C(F)F)cc1C(F)F (stereo not shown) [Example I-14],3.40^[a],–
CCOC(=O)CC(=O)N1CCC(c2nc(C3=NOC(c4c(F)cccc4OS(C)(=O)=O)C3)cs2)CC1 (stereo not shown) [Example I-54],2.29^[a],–
CS(=O)(=O)Oc1ccccc1C1CC(c2csc(C3CCN(C(=O)C(Br)C(=O)OCc4ccccc4)CC3)n2)=NO1 (stereo not shown) [Example I-68],3.31^[a],–
C#CCOc1cccc(F)c1C1CC(c2csc(C3CCN(C(=O)C(C(=O)OC(CC)CCCCC)n4nc(C(F)F)cc4C(F)F)CC3)n2)=NO1 (stereo not shown) [Example I-18],5.22^[a],–
C#CCOc1cccc(F)c1C1CC(c2csc(C3CCN(C(=O)CC(=O)OCCOC)CC3)n2)=NO1 (stereo not shown) [Example I-43],2.43^[a],–
C#CCOc1ccccc1C1CC(c2csc(C3CCN(C(=O)C(Br)C(=O)OC(C)C)CC3)n2)=NO1 (stereo not shown) [Example I-32],3.43^[a],–
C#CCOc1ccccc1C1CC(c2csc(C3CCN(C(=O)CC(=O)OC(CC)CCCCC)CC3)n2)=NO1 (stereo not shown) [Example I-57],4.56^[a],–
C#CCOc1cccc(Cl)c1C1CC(c2csc(C3CCN(C(=O)C(Br)C(=O)OCc4ccccc4)CC3)n2)=NO1 (stereo not shown) [Example I-69],3.85^[a],–
C#CCOc1ccccc1C1CC(c2csc(C3CCN(C(=O)CC(=O)OCc4ccccc4)CC3)n2)=NO1 (stereo not shown) [Example I-77],3.30^[a],–
C#CCOc1ccccc1C1CC(c2csc(C3CCN(C(=O)CC(=O)OC(C)(C)C)CC3)n2)=NO1 (stereo not shown) [Example I-82],3.22^[a],–
CC(C)OC(=O)C(Br)C(=O)N1CCC(c2nc(C3=NOC(c4ccccc4C=O)C3)cs2)CC1 (stereo not shown) [Example I-29],3.11^[a],–
CS(=O)(=O)Oc1ccccc1C1CC(c2csc(C3CCN(C(=O)CC(=O)OCc4ccccc4)CC3)n2)=NO1 (stereo not shown) [Example I-75],2.89^[a],–
CCCCCC(CC)OC(=O)C(C(=O)N1CCC(c2nc(C3=NOC(c4c(F)cccc4OS(C)(=O)=O)C3)cs2)CC1)n1nc(C(F)F)cc1C(F)F (stereo not shown) [Example I-22],4.04^[a],–
CCOC(=O)C(C(=O)N1CCC(c2nc(C3=NOC(c4ccccc4OS(C)(=O)=O)C3)cs2)CC1)n1cc(C(F)(F)F)nc1C (stereo not shown) [Example I-12],2.99^[a],–
CCCCCC(CC)OC(=O)CC(=O)N1CCC(c2nc(C3=NOC(c4ccccc4OS(C)(=O)=O)C3)cs2)CC1 (stereo not shown) [Example I-45],4.07^[a],Eff. % (inhibition of fungal growth) (Phytophthora infestans; 20 μg/mL of active ingredient): 100%
CS(=O)(=O)Oc1cccc(Cl)c1C1CC(c2csc(C3CCN(C(=O)C(C(=O)OCc4ccccc4)n4nc(C(F)F)cc4C(F)F)CC3)n2)=NO1 (stereo not shown) [Example I-61],3.98^[a],Eff. % (inhibition of fungal growth) (Phytophthora infestans; [2]): 100%
